Converted amounts (≈) assume the structure as drawn. The source made the active and inactive calls. The rule behind the calls is not given here.
Experiments:
in vitro = details: rat, liver microsomes
Description: Hepatic extraction ratio in rat liver microsomes at 1 uM incubated for 45 mins in presence of NADPH by LC-MS/MS analysis

[1] = Apparent permeability across basolateral to apical side in human Caco-2 cells assessed as drug recovery at 10 uM measured after 2 hrs by LC-MS/MS analysis; assay type: ADME, cell-based; details: read-out: Drug recovery
[2] = target: PH-interacting protein (Homo sapiens) (UniProt Q8WWQ0); details: dose 200.0 µM, time 30.0 min
[3] = Oral bioavailability in Sprague-Dawley rat at 25 mg/kg measured up to 24 hrs; assay type: ADME, organism-based; details: in vivo
[4] = Metabolic stability in human liver microsomes assessed as parent compound remaining at 1 uM incubated for 45 mins in presence of NADPH by LC-MS/MS analysis; assay type: ADME, Microsome; details: read-out: Stability
LNCaP [5] = experiment: Antiproliferative activity against human LNCaP cells assessed as cell growth inhibition by Celltiter-Glo assay; assay type: functional, cell-based
[6] = Apparent permeability across apical to basolateral side in human Caco-2 cells assessed as drug recovery at 10 uM measured after 2 hrs by LC-MS/MS analysis; assay type: ADME, cell-based; details: read-out: Drug recovery
[7] = target: T1, Bromodomain-containing protein 4 (Homo sapiens, UniProt O60885); details: dose 200.0 µM, time 30.0 min
LNCaP C4-2B [8] = experiment: Suppression of Androgen receptor target-gene expression in human LNCaP C4-2B cells at 5 uM incubated for 48 hrs by SYBR green dye-based qRT-PCR analysis; assay type: functional, cell-based
CREB-binding protein [9] = target: T2, CREB-binding protein (Homo sapiens, UniProt Q92793); experiment: Binding affinity to His6-tagged human CBP bromodomain (1081 to 1197 residues) expressed in Escherichia coli BL21 (DE3) assessed as dissociation constant by ITC analysis
LNCaP C4-2B [10] = experiment: Suppression of PSA gene expression in human LNCaP C4-2B cells transfected with renilla luciferase incubated for 24 hrs by dual luciferase reporter assay; assay type: functional, cell-based; details: dose 0.4-10 µM, DDE = dose-dependent effect
[11] = target: Bromodomain-containing protein 2 (Homo sapiens, UniProt P25440); experiment: Binding affinity to His6-tagged human BRD2 bromodomain-1 (77 to 194 residues) expressed in Escherichia coli BL21 (DE3) assessed as dissociation constant by ITC analysis
[12] = Toxicity in NOD SCID mouse xenografted with human 22Rv1 cells assessed as body weight loss at 40 mg/kg, ip administered once daily for 21 days and measured every other day; assay type: organism-based, CWR22R; details: in vivo, 504 h, time 21 day
CWR22R [13] = experiment: Suppression of c-Myc protein expression in human 22Rv1 cells at 5 uM incubated for 48 hrs by Western blot analysis; assay type: functional, cell-based
[14] = Clearance in Sprague-Dawley rat at 5 mg/kg, iv administered as single dose measured up to 24 hrs; assay type: ADME, organism-based; details: in vivo, iv, 5 mg/kg, 24 h
[15] = Cmax in Sprague-Dawley rat at 25 mg/kg, po measured up to 24 hrs; assay type: ADME, organism-based; set-up: dose 25 mg/kg, time < 24 hrs, route po; details: in vivo
[16] = AUC (0 to infinity) in Sprague-Dawley rat at 25 mg/kg, po measured up to 24 hrs; assay type: ADME, organism-based; set-up: time < 24 hrs, dose 25 mg/kg, route po; details: in vivo
CWR22R [17] = experiment: Antitumor activity against human 22Rv1 cells xenografted in NOD SCID mouse assessed as tumor growth inhibition at 40 mg/kg, ip administered once daily for 21 days and measured every other day relative to control; assay type: functional; details: 22Rv1, 504 h, time 21 day, read-out: TGI
[18] = Apparent permeability across basolateral to apical side in human Caco-2 cells at 10 uM measured after 2 hrs by LC-MS/MS analysis; assay type: ADME, cell-based
[19] = target: T3, Bromodomain testis-specific protein (Homo sapiens, UniProt Q58F21); details: dose 200.0 µM, time 30.0 min
[20] = Efflux ratio of apparent permeability across basolateral to apical side over apical to basolateral side in human Caco-2 cells at 10 uM measured after 2 hrs by LC-MS/MS analysis; assay type: ADME, cell-based
[21] = AUC (0 to infinity) in Sprague-Dawley rat at 5 mg/kg, iv administered as single dose measured up to 24 hrs; assay type: ADME, organism-based; set-up: time < 24 hrs, dose 5 mg/kg, route iv; details: in vivo, 24 h
[22] = Intrinsic clearance in human liver microsomes at 1 uM incubated for 45 mins in presence of NADPH by LC-MS/MS analysis; assay type: ADME, Microsome; details: read-out: CLH
[23] = target: SWI/SNF-related matrix-associated actin-dependent regulator of chromatin subfamily A member 2 (Homo sapiens) (UniProt P51531); details: dose 200.0 µM, time 30.0 min
[24] = target: Histone acetyltransferase p300 (Homo sapiens) (UniProt Q09472); details: dose 200.0 µM, time 30.0 min
[25] = Apparent permeability across apical to basolateral side in human Caco-2 cells at 10 uM measured after 2 hrs by LC-MS/MS analysis; assay type: ADME, cell-based
[26] = target: T4, Bromodomain-containing protein 3 (Homo sapiens, UniProt Q15059); details: dose 200.0 µM, time 30.0 min
Target sequence in this assay (Q15059 2-726 limits assumed): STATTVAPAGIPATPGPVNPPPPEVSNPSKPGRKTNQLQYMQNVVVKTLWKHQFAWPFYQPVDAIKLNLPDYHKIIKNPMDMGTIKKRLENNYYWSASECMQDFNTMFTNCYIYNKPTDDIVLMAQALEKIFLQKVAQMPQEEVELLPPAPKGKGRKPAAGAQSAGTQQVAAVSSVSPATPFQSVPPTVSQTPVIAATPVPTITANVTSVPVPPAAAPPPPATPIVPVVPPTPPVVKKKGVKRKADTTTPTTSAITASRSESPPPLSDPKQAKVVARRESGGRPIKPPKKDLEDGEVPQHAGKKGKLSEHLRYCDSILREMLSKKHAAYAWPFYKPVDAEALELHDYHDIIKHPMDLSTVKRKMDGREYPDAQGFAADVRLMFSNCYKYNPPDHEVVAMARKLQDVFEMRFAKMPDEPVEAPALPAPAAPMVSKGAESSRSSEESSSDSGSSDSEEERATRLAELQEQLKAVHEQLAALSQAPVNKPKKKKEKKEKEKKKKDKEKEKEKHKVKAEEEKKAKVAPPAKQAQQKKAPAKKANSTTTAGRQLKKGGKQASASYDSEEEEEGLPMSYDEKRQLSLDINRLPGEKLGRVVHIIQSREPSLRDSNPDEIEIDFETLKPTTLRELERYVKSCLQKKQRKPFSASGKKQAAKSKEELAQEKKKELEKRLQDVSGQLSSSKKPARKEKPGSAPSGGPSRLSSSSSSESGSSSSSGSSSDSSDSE

[27] = Half life in rat liver microsomes at 1 uM incubated for 45 mins in presence of NADPH by LC-MS/MS analysis; assay type: ADME, Microsome
CREB-binding protein [28] = target: T2, CREB-binding protein; details: dose 200.0 µM, time 30.0 min
Target sequence in this assay (Q92793 2-2442 limits assumed): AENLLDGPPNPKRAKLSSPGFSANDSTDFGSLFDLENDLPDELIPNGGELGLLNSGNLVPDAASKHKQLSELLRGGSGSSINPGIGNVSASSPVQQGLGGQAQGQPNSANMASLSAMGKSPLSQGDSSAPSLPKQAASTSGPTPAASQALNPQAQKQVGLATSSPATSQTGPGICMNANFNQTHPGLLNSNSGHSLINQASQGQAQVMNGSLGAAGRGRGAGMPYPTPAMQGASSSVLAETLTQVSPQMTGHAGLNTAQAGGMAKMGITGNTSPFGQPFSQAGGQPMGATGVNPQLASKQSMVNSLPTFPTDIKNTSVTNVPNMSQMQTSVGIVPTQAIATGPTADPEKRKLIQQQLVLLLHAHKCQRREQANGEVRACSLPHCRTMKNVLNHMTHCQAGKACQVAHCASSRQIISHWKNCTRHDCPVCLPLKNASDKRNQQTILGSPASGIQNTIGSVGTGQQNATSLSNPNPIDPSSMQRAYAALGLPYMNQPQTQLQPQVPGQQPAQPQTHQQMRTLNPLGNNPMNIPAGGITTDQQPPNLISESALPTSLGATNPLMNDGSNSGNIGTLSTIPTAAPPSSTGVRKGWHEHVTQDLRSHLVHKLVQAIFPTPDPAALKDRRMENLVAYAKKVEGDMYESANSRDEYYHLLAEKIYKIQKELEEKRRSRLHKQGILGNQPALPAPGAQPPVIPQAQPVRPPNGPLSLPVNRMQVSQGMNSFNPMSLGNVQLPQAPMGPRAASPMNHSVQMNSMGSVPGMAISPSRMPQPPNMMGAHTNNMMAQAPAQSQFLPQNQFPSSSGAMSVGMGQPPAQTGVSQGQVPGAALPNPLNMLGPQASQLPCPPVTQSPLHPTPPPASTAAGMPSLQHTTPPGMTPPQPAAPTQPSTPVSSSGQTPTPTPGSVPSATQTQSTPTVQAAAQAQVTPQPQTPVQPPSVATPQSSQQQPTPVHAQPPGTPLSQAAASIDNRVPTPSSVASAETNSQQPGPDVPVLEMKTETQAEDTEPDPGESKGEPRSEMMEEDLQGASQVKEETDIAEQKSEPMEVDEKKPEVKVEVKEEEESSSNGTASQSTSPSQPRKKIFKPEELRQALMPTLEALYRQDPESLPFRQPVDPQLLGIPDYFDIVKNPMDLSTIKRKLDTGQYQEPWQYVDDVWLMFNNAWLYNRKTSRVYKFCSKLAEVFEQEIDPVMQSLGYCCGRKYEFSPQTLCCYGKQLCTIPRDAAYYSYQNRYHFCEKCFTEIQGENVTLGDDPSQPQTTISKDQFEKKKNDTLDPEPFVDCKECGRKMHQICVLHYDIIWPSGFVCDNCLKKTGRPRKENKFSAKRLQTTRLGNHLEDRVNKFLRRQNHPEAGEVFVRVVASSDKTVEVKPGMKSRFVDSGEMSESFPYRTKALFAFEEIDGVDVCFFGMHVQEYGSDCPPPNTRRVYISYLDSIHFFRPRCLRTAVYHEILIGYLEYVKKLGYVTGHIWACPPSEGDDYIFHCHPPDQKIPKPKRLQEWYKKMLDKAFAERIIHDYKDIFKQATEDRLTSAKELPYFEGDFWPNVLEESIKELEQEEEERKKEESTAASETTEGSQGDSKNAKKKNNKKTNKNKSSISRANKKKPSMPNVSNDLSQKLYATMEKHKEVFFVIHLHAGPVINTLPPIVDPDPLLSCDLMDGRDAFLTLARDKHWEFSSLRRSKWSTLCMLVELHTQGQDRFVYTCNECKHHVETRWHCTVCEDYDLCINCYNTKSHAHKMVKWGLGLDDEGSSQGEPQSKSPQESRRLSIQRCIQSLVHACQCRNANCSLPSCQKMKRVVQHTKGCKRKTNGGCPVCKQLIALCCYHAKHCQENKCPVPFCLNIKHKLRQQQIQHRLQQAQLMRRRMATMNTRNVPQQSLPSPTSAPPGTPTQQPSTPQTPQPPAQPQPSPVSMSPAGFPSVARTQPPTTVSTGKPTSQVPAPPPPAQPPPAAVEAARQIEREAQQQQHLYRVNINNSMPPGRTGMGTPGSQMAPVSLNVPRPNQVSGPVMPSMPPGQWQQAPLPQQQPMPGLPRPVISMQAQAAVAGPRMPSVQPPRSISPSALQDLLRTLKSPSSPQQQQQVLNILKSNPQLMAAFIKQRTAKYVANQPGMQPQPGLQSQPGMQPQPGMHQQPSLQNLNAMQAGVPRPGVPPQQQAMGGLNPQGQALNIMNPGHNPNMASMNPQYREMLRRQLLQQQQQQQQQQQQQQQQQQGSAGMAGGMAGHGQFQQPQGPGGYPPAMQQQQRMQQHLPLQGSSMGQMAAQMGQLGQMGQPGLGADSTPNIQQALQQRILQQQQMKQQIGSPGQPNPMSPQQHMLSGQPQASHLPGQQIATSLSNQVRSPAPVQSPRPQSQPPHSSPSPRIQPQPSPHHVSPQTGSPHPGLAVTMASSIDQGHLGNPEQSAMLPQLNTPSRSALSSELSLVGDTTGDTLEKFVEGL

LNCaP [29] = experiment: Suppression of c-Myc protein expression in human LNCaP cells at 5 uM incubated for 48 hrs by Western blot analysis; assay type: functional, cell-based
[30] = target: T1, Bromodomain-containing protein 4; details: dose 200.0 µM, time 30.0 min; remark: listed apart in the source
[31] = Hepatic extraction ratio in human liver microsomes at 1 uM incubated for 45 mins in presence of NADPH by LC-MS/MS analysis; assay type: ADME, Microsome; details: read-out: ERH
CWR22R [32] = experiment: Antiproliferative activity against human 22Rv1 cells assessed as cell growth inhibition by Celltiter-Glo assay; assay type: functional, cell-based
[33] = Aqueous solubility of compound in PBS buffer at pH 7.2 measured after 24 hrs by HPLC analysis; assay type: physicochemical
[34] = target: T4, Bromodomain-containing protein 3; details: dose 200.0 µM, time 30.0 min; remark: listed apart in the source
Target sequence in this assay (Q15059 2-726 limits assumed): as the sequence (Q15059 2-726 limits assumed) above

CWR22R [35] = experiment: Suppression of Androgen receptor variants gene expression in human 22Rv1 cells incubated for 48 hrs by SYBR green dye-based qRT-PCR analysis; assay type: functional, cell-based; details: dose 0-20 µM, DDE = dose-dependent effect
[36] = Metabolic stability in rat liver microsomes assessed as parent compound remaining at 1 uM incubated for 45 mins in presence of NADPH by LC-MS/MS analysis; assay type: ADME, Microsome; details: read-out: Stability
[37] = target: T3, Bromodomain testis-specific protein; details: dose 200.0 µM, time 30.0 min; remark: listed apart in the source
[38] = target: T4, Bromodomain-containing protein 3; experiment: Binding affinity to His6-tagged human BRD3 bromodomain-2 (306 to 416 residues) expressed in Escherichia coli BL21 (DE3) assessed as dissociation constant by ITC analysis
LNCaP C4-2B [39] = experiment: Antiproliferative activity against human LNCaP C4-2B cells assessed as inhibition of cell growth by Celltiter-Glo assay; assay type: functional, cell-based
[40] = target: Histone acetyltransferase KAT2B (Homo sapiens) (UniProt Q92831); details: dose 200.0 µM, time 30.0 min
Sequence of Histone acetyltransferase KAT2B (Homo sapiens) (Q92831 whole entry, looked up): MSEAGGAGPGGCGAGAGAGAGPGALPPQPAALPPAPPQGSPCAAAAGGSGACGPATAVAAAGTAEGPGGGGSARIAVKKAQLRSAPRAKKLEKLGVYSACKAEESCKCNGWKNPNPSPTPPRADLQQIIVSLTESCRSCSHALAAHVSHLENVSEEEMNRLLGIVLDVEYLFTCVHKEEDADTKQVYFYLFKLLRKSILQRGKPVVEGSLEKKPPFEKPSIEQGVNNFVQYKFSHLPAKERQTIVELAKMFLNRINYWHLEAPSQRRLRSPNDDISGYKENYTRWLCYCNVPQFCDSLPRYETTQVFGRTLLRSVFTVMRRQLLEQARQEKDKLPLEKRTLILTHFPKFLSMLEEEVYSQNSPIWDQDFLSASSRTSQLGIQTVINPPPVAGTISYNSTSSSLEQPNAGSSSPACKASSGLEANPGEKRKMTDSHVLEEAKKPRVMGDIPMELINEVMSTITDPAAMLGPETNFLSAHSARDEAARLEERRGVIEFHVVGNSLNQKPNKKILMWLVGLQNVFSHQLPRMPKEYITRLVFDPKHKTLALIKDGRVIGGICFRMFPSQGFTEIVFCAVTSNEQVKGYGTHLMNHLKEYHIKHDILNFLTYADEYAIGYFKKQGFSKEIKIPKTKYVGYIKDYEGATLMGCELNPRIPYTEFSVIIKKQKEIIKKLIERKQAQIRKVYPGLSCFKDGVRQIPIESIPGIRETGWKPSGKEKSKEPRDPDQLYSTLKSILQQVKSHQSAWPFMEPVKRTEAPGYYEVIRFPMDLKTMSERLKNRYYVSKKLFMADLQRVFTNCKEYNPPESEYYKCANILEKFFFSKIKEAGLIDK

Sequence of Bromodomain-containing protein 2 (P25440 whole entry, the tested form may be a part): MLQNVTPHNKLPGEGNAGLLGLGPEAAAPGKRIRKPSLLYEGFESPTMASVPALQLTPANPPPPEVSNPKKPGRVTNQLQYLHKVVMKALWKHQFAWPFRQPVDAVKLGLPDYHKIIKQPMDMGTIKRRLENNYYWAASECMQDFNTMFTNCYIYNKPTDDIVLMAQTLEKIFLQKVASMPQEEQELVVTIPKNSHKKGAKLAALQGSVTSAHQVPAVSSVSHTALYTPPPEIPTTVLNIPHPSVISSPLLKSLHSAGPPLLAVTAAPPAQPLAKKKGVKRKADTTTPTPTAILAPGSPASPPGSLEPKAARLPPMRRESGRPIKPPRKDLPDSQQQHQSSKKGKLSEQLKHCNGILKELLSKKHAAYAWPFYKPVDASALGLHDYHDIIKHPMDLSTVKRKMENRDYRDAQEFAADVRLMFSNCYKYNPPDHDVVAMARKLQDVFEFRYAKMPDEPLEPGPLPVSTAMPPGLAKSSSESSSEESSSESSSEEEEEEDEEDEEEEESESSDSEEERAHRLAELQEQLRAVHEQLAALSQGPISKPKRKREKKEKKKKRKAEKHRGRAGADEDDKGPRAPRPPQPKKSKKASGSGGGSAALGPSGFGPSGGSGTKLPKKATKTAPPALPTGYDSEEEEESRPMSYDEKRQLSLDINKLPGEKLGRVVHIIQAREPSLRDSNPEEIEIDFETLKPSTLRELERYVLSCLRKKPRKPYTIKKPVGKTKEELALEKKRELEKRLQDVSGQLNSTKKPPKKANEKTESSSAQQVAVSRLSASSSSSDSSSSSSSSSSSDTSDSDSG

Q: Which hepatic extraction ratio at 0.75 h, 1 µM (in vitro) does the source give for `COc1ccn2c(C(C)=O)cc(C(=O)Nc3cc(C(C)O)cc(-c4cnn(C5CC5)c4)c3F)c2c1` (stereo unspecified) here?
A: The hepatic extraction ratio at 0.75 h, 1 µM was 0.495.

Q: What about the recovery at 2 h, 10 µM [1] of the same compound?
A: Its recovery at 2 h, 10 µM is 37.3%.

Q: What about the ΔTm [2] of the same compound?
A: Its ΔTm is 0 °C.

Q: What about the bioavailability [3] of the same compound?
A: The bioavailability was 25.9%.

Q: What about the remaining at 0.75 h, 1 µM [4] of the same compound?
A: The remaining at 0.75 h, 1 µM was 23.1%.

Q: And the IC50 (LNCaP [5])?
A: Its IC50 is 0.59 µM.

Q: And the recovery at 2 h, 10 µM [6]?
A: Its recovery at 2 h, 10 µM is 41.2%.

Q: And the ΔTm [7]?
A: The ΔTm was -0.5 °C.

Q: And the Activity (LNCaP C4-2B [8])?
A: The Activity was “Active”.

Q: And the Kd (CREB-binding protein [9])?
A: Its Kd is 0.058 µM.

Q: What about the Activity (LNCaP C4-2B [10]) of the same compound?
A: The Activity was “Dde”.

Q: And the Kd [11]?
A: Its Kd is 0.84 µM.

Q: And the Activity [12]?
A: Its Activity is “Non-Toxic”.

Q: And the Activity (CWR22R [13])?
A: Its Activity is “Active”.

Q: What about the CL [14] of the same compound?
A: The CL was 2.33 mL/min/kg.

Q: And the Cmax [15]?
A: The Cmax was 1570 ng/mL.

Q: And the AUC(0-inf) [16]?
A: Its AUC(0-inf) is 4820 ng·h/mL.

Q: What about the inhibition in vivo at 40 mg/kg (CWR22R [17]) of the same compound?
A: The inhibition in vivo at 40 mg/kg was 88%.

Q: What about the Papp B→A at 2 h, 10 µM [18] of the same compound?
A: The Papp B→A at 2 h, 10 µM was 11.8 ×10⁻⁶ cm/s.

Q: And the ΔTm [19]?
A: Its ΔTm is -3 °C.

Q: And the efflux ratio at 2 h, 10 µM [20]?
A: Its efflux ratio at 2 h, 10 µM is 1.77.

Q: And the AUC [21]?
A: The AUC was 3715.71 ng·h/mL.

Q: What about the CLint scaled at 1 µM [22] of the same compound?
A: Its CLint scaled at 1 µM is 81.9 mL/min/kg.

Q: What about the ΔTm [23] of the same compound?
A: Its ΔTm is -0.5 °C.

Q: And the ΔTm [24]?
A: The ΔTm was 12 °C.

Q: What about the Papp A→B at 2 h, 10 µM [25] of the same compound?
A: Its Papp A→B at 2 h, 10 µM is 6.68 ×10⁻⁶ cm/s.

Q: What about the ΔTm [26] of the same compound?
A: Its ΔTm is -2.5 °C.

Q: What about the half-life at 1 µM [27] of the same compound?
A: Its half-life at 1 µM is 45.9 min.

Q: And the ΔTm (CREB-binding protein [28])?
A: Its ΔTm is 11.5 °C.

Q: And the Activity (LNCaP [29])?
A: The Activity was “Active”.

Q: What about the ΔTm [30] of the same compound?
A: Its ΔTm is -1.5 °C.

Q: What about the hepatic extraction ratio at 0.75 h, 1 µM [31] of the same compound?
A: Its hepatic extraction ratio at 0.75 h, 1 µM is 0.798.

Q: And the IC50 (CWR22R [32])?
A: The IC50 was 2.04 µM.

Q: And the solubility at 24 h [33]?
A: Its solubility at 24 h is 20 µg/mL (≈ 42 µM).

Q: What about the ΔTm [34] of the same compound?
A: The ΔTm was -1.3 °C.

Q: What about the Activity (CWR22R [35]) of the same compound?
A: Its Activity is “Dde”.

Q: What about the remaining at 0.75 h, 1 µM [36] of the same compound?
A: The remaining at 0.75 h, 1 µM was 50.7%.

Q: And the ΔTm [37]?
A: The ΔTm was -3.3 °C.

Q: And the Kd [38]?
A: Its Kd is 1.5 µM.

Q: And the IC50 (LNCaP C4-2B [39])?
A: Its IC50 is 6.43 µM.

Q: And the ΔTm [40]?
A: Its ΔTm is -0.6 °C.

— ChEMBL document CHEMBL5154675, “Design, Synthesis, and Biological Evaluation of 1-(Indolizin-3-yl)ethan-1-ones as CBP Bromodomain Inhibitors for the Treatment of Prostate Cancer” (J Med Chem, 2022)
